Source: ChEMBL document CHEMBL3046962, “Synthesis of new olefin chalcone derivatives as antitumor, antioxidant and antimicrobial agents” (Med Chem Res, 2012)

Assays:
[1] = Antioxidant activity assessed as ferric reducing activity at 100 ug after 20 min by UV-Visible spectrophotometry; set-up: scale not given: the % may be the effect or the level left
[2] = test system: Staphylococcus aureus; assay: Antimicrobial activity against Staphylococcus aureus MTCC 96 at 100 ug after 24 hr by agar disk diffusion method; type: functional; details: MTCC 96, 24 h, read-out: DIZ
[3] = test system: Proteus vulgaris; assay: Antimicrobial activity against Proteus vulgaris MTCC 1751 at 100 ug after 24 hr by agar disk diffusion method; type: functional; details: MTCC 1751, 24 h, read-out: DIZ
[4] = Cytotoxicity against Homo sapiens (human) HeLa-B75 at 100 ug after 72 hr by MTT assay; type: functional
[5] = Cytotoxicity against Homo sapiens (human) Hep-3BPN7 at 100 ug after 72 hr by MTT assay; type: functional
[6] = Antioxidant activity assessed as hydroxyl radical scavenging activity at 100 ug after 5 min by UV-Visible spectrophotometry; type: functional
[7] = test system: Escherichia coli; assay: Antimicrobial activity against Escherichia coli DH5[alpha] at 100 ug after 24 hr by agar disk diffusion method; type: functional; details: read-out: DIZ
[8] = Cytotoxicity against Homo sapiens (human) HL60-P58 at 100 ug after 72 hr by MTT assay; type: functional
[9] = Cytotoxicity against Homo sapiens (human) PN-5C-12 at 100 ug after 72 hr by MTT assay; details: in vitro
[10] = test system: Candida albicans; assay: Antimicrobial activity against Candida albicans MTCC 3017 at 100 ug after 48 hr by agar disk diffusion method; type: functional; details: MTCC 3017, 48 h, read-out: DIZ
[11] = test system: Radical scavenging activity; assay: Antioxidant activity assessed as DPPH radical scavenging activity at 100 ug after 20 min by UV-Visible spectrophotometry; type: functional

Row | Structure (SMILES) | Activity [1] [%] | zone of inhibition at 100 µg/disc [2] [mm] | zone of inhibition at 100 µg/disc [3] [mm] | Activity [4] [%] | Activity [5] [%] | Activity [6] [%] | zone of inhibition at 100 µg/disc [7] [mm] | Activity [8] [%] | Activity [9] [%] | zone of inhibition at 100 µg/disc [10] [mm] | Activity [11] [%]
1 | COc1ccc(C(=O)/C=C/c2c(OC)cc(OC)c(C3=CCN(C)CC3)c2OC)cc1OC | 50.7 | 0.5 | 5.5 | 84.84 | 79.46 | 35 | 2 | 62.77 | 65.21 | 1.5 | 22.3
2 | COc1cc(OC)c(C2=CCN(C)CC2)c(OC)c1/C=C/C(=O)c1ccc(F)c(F)c1 | 43.9 | 2.5 | 4 | 82.85 | 76.93 | 52.2 | 2 | 70.5 | 65.48 | 1.1 | 58.8
3 | COc1cc(OC)c(C2=CCN(C)CC2)c(OC)c1/C=C/C(=O)c1ccc(Br)cc1 | 50.3 | 0.5 | – | 84.84 | 78.93 | 44.4 | 2 | 62.68 | 66.4 | 0.5 | 23.3
4 | COc1ccc(C(=O)/C=C/c2c(OC)cc(OC)c(C3=CCN(C)CC3)c2OC)c(OC)c1 | 53.1 | 2.5 | 3.5 | 83.4 | 77 | 59 | 3.15 | 78.48 | 47.82 | – | 60.6
5 | COc1cc(OC)c(C(=O)/C=C/c2c(OC)cc(OC)c(C3=CCN(C)CC3)c2OC)c(OC)c1 | 58.8 | 3.5 | 3.5 | 78.73 | 70.53 | 46.6 | 3.5 | 65.04 | 59.81 | – | 56.1
6 | COc1ccc(OC)c(C(=O)/C=C/c2c(OC)cc(OC)c(C3=CCN(C)CC3)c2OC)c1 | 66.5 | 5 | 5 | 82.09 | 73.4 | 54.9 | 2.5 | 66.3 | 41.1 | – | 57.7
7 | COc1cc(OC)c(C2=CCN(C)CC2)c(OC)c1/C=C/C(=O)c1ccc(F)cc1 | 48.3 | 2 | 7.5 | 85.04 | 79.86 | 38.7 | 4.5 | 62.18 | 69.43 | 3.5 | 22.9
8 | COc1cc(OC)c(C2=CCN(C)CC2)c(OC)c1/C=C/C(=O)c1ccc(Cl)cc1 | 41.9 | 2.5 | 3 | 83.74 | 77.4 | 16.9 | 3 | 65.04 | 67.98 | – | 20.4
9 | COc1cc(OC)c(C2=CCN(C)CC2)c(OC)c1/C=C/C(=O)c1cccc(N)c1 | 64.8 | 3.5 | 7 | 82.64 | 76.33 | 55.6 | 3.5 | 66.72 | 44.53 | 6.3 | 94.5
10 | COc1cc(OC)c(C2=CCN(C)CC2)c(OC)c1/C=C/C(=O)c1ccccc1 | 58.4 | 5 | 2.5 | 84.15 | 78.06 | 41.4 | 5.5 | 63.52 | 61.79 | 3.5 | 27.9
11 | COc1cc(OC)c(C2=CCN(C)CC2)c(OC)c1/C=C/C(=O)c1ccc([N+](=O)[O-])cc1 | 46.3 | 5 | 4 | 83.67 | 80.13 | 51.5 | 2 | 65.88 | 70.09 | 2 | 25
12 | COc1cc(OC)c(C2=CCN(C)CC2)c(OC)c1/C=C/C(=O)c1ccc[nH]1 | 61.2 | 1.1 | 3 | 77.77 | 80.13 | 63.1 | 6.25 | 66.55 | 57.57 | 1.5 | 68.7
13 | COc1cc(O)c(C(=O)/C=C/c2c(OC)cc(OC)c(C3=CCN(C)CC3)c2OC)c(OC)c1 | 69.3 | 1.5 | 9.5 | 79.69 | 71.4 | 51.1 | 2 | 64.2 | 44.13 | – | 57.3
14 | COc1ccc(C(=O)/C=C/c2c(OC)cc(OC)c(C3=CCN(C)CC3)c2OC)cc1 | 67.7 | 2.5 | 7 | 80.86 | 72.33 | 57.9 | 3.5 | 56.97 | 46.11 | – | 55.6
15 | COc1cc(OC)c(C2=CCN(C)CC2)c(OC)c1/C=C/C(=O)c1cc(Cl)ccc1Cl | 62.4 | 1.5 | 6.5 | 79.97 | 70.8 | 48.5 | 1.5 | 65.63 | 60.47 | 1.5 | 55.4
16 | COc1cc(OC)c(C2=CCN(C)CC2)c(OC)c1/C=C/C(=O)c1ccc(C)cc1 | 68.1 | 5 | 10.2 | 82.23 | 72.53 | 59.8 | 2.5 | 69.49 | 44.26 | 0.1 | 58.5
17 | CN(Cc1cnc2nc(N)nc(N)c2n1)c1ccc(C(=O)N[C@@H](CCC(=O)O)C(=O)O)cc1 [METHOTREXATE] | – | – | – | 78.66 | 64.6 | – | – | 54.08 | 53.85 | – | –
18 | COc1ccccc1C(=O)/C=C/c1c(OC)cc(OC)c(C2=CCN(C)CC2)c1OC | 60.8 | 2.5 | 3 | 81.13 | 71.33 | 59.8 | 3.5 | 68.4 | 46.77 | – | 60
